The source made the active and inactive calls.

Assay [1] concerns the target Induced myeloid leukemia cell differentiation protein Mcl-1 (Homo sapiens, UniProt Q07820). It counts as functional.
The nature of assay [2]: human group III sPLA2 inhibitors, dose response, biochemical, QFRET, IC50 (AID 743457).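 Further: green fluorescence rise as the enzyme cleaves BODIPY PC-A2 in liposomes; potency for inhibition of the enzyme.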
In a further assay the target is Beta-galactosidase (Escherichia coli, UniProt Q8VNN2). The experiment in a line: Dose response counterscreen for EBI2 assay utilizing the enzyme, b-galactosidase. Type of assay: functional.
Beta-galactosidase, sequence (Q8VNN2 whole entry): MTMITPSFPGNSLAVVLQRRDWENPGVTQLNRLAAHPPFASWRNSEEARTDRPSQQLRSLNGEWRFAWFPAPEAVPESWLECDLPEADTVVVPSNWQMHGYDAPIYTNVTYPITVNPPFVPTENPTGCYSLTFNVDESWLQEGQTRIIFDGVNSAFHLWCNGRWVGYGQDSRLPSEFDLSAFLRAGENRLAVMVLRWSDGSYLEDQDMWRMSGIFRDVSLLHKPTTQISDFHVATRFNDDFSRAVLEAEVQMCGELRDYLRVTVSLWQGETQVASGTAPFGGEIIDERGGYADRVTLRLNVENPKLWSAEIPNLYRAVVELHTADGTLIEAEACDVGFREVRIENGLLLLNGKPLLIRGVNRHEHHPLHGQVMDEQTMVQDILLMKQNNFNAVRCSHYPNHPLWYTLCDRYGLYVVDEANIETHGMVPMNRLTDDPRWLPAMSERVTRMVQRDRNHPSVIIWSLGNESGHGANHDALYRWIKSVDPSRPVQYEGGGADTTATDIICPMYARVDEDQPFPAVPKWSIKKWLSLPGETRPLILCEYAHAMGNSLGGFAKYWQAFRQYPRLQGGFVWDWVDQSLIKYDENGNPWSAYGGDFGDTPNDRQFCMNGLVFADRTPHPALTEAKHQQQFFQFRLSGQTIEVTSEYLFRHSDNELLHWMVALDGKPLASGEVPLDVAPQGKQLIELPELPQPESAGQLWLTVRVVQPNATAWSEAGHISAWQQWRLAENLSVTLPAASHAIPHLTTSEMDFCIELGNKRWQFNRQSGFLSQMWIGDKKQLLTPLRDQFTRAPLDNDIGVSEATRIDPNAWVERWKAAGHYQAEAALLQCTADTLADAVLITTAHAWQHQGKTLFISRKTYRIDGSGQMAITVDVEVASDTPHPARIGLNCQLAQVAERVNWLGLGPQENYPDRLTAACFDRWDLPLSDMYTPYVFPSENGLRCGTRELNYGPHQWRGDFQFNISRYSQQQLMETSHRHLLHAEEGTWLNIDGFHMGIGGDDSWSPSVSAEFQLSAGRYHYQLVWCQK
Assay [3] can be described thus: cells. Type of assay: functional, cell-based.
Assay [4] can be described thus: Luminescence Cell-Based Dose Confirmation HTS to Identify Activators of 5'UTR Stem-Loop Driven Alpha-Synuclein mRNA Translation in H4 Neuroglioblastoma Cells. [Related pubchem assays: 1829 (Project Summary), 1814 (Primary HTS)]. Type of assay: functional.
A short description of assay [5]: Luminescence Cell-Based Dose Response HTS to Identify Activators of Luciferase Translation or Activity in H4 […] Cells. [Related pubchem assays: 1829 (Project Summary), 1814 (Primary HTS)]. Type of assay: functional.
A further assay concerns H4. The experiment in a line: Luminescence Cell-Based Dose Response HTS to Identify Activators of 5'UTR Stem-Loop Driven Prion Protein mRNA Translation in H4 Neuroglioblastoma Cells. [Related pubchem assays: 1829 (Project Summary), 1814 (Primary HTS)]. It counts as functional. As to conditions: Homo sapiens.
Another assay has as its target T1, Protein skinhead-1 (Caenorhabditis elegans, UniProt P34707).
T1 sequence (P34707 whole entry): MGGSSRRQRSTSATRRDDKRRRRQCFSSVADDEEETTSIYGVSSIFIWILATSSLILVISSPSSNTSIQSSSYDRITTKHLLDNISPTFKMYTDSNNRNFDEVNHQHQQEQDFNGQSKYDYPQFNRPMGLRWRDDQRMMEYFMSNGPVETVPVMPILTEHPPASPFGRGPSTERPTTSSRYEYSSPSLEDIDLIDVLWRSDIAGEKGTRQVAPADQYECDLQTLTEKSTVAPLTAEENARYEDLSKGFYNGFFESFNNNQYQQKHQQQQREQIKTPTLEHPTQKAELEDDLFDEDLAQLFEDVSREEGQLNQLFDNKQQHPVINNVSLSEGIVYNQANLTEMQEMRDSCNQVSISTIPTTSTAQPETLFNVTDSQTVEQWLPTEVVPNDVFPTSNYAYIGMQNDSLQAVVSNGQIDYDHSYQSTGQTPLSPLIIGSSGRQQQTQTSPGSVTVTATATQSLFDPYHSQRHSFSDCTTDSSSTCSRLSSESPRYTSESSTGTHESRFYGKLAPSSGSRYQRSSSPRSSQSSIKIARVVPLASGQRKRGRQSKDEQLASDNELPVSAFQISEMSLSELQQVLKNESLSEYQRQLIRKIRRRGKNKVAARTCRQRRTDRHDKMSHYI
Type of assay: functional.

Assay [6] has as its target T2, Nuclear receptor subfamily 0 group B member 1 (Homo sapiens, UniProt P51843).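 Further: HEK293T cells transfected with SF-1 and DAX-1 plus StAR promoter luciferase reporter.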
T2 sequence (P51843 whole entry): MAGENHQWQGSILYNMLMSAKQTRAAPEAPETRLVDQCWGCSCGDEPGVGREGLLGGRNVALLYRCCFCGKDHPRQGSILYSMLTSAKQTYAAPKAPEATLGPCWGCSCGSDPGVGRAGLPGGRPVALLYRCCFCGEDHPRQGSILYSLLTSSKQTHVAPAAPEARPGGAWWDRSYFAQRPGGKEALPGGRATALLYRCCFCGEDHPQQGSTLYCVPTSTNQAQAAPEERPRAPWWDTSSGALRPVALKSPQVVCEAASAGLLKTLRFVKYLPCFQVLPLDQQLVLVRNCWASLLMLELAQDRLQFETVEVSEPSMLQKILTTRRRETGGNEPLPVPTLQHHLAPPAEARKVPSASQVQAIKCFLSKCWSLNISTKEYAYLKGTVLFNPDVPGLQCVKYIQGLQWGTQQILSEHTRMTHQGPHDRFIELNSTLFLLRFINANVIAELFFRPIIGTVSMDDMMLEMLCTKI
It counts as functional, cell-based.

Assay [7] can be described thus: HepG2 cell cytotoxicity, dose response, cytotoxicity control, plate reader, cherry-pick, antagonist series (AID 743416). It counts as functional, cell-based.
Assay [8] can be described thus: MC4R antagonists, dose response, counter-screen for LGR2 antagonist project, cell-based, plate reader, cherry pick (AID 743444).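 Further: transfected HEK 293 cells stimulated with alpha-MSH peptide; potency of inhibitors of the alpha-MSH evoked signal.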 It counts as functional.
Assay [9] in a line: LGR2 antagonists, dose response, cell-based, HEK293, CRE-luciferase reporter, cherry pick, set 2 (AID 743343).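 Further: transfected cells were stimulated with diluted bursicon conditioned medium after compound addition.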 Type of assay: functional.
Assay [10] is described as follows: A549 cell cytotoxicity, dose response, cytotoxicity control, plate reader, cherry-pick, antagonist series (AID 743412). Type of assay: functional, cell-based.
Another assay has as its target T3, Galanin receptor type 3 (Homo sapiens, UniProt O60755).
T3 sequence (O60755 whole entry): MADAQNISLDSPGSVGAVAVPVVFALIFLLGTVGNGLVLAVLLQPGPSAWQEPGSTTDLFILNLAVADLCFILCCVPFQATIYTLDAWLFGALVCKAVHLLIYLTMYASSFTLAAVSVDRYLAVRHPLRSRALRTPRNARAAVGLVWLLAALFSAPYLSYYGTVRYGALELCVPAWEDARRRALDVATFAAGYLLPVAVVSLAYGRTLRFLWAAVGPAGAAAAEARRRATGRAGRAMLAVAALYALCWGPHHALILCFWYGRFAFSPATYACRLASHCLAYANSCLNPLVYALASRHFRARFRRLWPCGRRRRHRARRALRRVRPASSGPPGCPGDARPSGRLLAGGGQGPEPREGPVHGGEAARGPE
Kind of assay: Fluorescence-based cell-based primary high throughput dose response assay to identify antagonists of the Galanin Receptor 3 (GalR3). Type of assay: functional.

A short description of assay [11]: cells. Type of assay: functional, cell-based. As to conditions: HEK-CNG.
The target of assay [12] is T4, DNA repair and recombination protein RAD54-like (Homo sapiens, UniProt Q92698).
T4 sequence (Q92698 whole entry): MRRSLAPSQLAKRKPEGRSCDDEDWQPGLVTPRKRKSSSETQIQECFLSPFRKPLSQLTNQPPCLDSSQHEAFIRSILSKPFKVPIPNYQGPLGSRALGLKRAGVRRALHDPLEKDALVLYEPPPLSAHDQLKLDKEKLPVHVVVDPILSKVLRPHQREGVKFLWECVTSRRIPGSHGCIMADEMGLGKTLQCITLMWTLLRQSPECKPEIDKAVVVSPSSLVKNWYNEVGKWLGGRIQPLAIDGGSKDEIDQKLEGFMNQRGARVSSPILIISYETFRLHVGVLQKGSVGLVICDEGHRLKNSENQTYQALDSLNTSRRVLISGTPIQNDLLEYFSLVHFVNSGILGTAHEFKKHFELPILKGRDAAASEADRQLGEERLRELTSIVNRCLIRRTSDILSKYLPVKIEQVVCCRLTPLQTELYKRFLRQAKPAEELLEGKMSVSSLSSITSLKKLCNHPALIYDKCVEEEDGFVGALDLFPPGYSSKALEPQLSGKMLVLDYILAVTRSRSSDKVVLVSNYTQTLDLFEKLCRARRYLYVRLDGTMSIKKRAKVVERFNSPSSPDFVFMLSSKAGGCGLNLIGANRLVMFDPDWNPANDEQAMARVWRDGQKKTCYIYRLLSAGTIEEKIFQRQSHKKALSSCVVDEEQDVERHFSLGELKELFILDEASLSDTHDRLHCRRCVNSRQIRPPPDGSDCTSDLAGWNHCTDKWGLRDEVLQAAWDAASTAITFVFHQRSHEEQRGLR
Kind of assay: inhibitors of human RAD54 branch migration, confirmation, biochemical, fluorescence, cherry-picked samples, dose series (AID 651657). Type of assay: functional.

Assay [13] deals with T5, Heat shock factor protein 1 (Mus musculus, UniProt P38532).
T5 sequence (P38532 whole entry): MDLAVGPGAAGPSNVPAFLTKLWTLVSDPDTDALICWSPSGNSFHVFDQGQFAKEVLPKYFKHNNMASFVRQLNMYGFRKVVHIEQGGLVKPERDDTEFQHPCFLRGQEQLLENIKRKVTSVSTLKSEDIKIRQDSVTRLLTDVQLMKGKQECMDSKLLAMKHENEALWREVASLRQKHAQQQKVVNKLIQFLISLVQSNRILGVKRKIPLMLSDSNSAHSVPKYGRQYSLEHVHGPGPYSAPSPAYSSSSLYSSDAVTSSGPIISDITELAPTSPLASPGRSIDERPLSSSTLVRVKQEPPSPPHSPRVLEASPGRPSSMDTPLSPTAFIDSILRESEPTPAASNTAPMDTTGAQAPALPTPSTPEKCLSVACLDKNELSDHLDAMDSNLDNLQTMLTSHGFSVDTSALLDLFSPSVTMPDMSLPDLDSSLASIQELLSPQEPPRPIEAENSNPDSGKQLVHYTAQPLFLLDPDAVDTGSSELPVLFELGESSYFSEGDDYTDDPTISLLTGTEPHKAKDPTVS
Kind of assay: HSF1 potentiators in luciferase reporter cells, confirmation, cell-based, NIH3T3, luminescence, dose retest (AID 435004).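 Further: stress induced by proteasome inhibitor MG132 added 30 min after compound; luciferase reporter driven by HSF1 response element in NIH3T3 cells; actives raise luminescence as potentiators of the MG132 stress response.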 It counts as functional.

Assay [14] can be described thus: THP-1 cell cytotoxicity, dose response, cytotoxicity control for Vif-APOBEC3G degradation inhibitor project, THP-1 cells (AID 1117359). Type of assay: functional. As to conditions: Human immunodeficiency virus 1, THP-1.
A short description of assay [15]: miR-122 activators in hepatoma reporter cells, dose response, cell-based, Huh7 psiCHECK-miR122, Renilla luciferase, cherry-picked (AID 651956).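 Further: huh7 hepatoma cells stably carrying a psiCHECK-2 miR-122 sensor plasmid; renilla luciferase signal reporting endogenous miR-122 activity after 48 h compound exposure.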 Type of assay: functional.
The nature of assay [16]: HeLa cell cytotoxicity, dose response, cytotoxicity control for MgcRacGAP inhibitor project (AID 624300). Type of assay: functional.
The target in assay [17] is T6, Rac GTPase-activating protein 1 (Homo sapiens, UniProt Q9H0H5).
T6 sequence (Q9H0H5 whole entry): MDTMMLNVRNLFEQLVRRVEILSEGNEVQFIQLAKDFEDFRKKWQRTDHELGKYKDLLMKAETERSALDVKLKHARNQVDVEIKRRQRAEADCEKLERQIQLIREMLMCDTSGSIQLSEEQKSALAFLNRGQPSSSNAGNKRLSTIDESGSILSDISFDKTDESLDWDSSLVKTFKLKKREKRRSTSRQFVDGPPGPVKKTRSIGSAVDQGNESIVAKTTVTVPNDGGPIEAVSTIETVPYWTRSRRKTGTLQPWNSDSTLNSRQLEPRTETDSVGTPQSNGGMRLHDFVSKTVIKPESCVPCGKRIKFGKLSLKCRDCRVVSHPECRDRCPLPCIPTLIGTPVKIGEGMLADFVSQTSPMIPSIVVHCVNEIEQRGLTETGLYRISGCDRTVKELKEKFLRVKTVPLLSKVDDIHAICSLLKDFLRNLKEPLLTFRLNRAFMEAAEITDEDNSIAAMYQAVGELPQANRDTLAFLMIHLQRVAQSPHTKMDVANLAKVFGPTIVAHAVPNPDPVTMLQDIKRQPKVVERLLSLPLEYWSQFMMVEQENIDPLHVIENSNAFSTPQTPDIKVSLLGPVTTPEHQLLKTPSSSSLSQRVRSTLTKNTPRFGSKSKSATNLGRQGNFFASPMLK
Kind of assay: MgcRacGAP GTPase-activating activity inhibitors, confirmation, biochemical, ADP Hunter fluorescence, primary and confirmatory (AID 624330). Type of assay: functional.

Induced myeloid leukemia cell differentiation protein Mcl-1, sequence (Q07820 whole entry): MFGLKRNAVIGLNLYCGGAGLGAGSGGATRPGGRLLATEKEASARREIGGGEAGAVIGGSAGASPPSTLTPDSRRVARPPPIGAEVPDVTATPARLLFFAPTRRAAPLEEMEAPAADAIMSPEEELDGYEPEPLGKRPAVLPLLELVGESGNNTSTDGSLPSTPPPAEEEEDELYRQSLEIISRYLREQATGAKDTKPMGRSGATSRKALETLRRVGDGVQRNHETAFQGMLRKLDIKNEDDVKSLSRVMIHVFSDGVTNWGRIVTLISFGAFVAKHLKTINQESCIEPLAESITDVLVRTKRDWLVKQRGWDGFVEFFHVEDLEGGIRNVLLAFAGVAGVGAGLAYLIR

On to `CN(C)c1ccc(NC(=O)c2cccc(C(=O)Nc3ccc(N(C)C)cc3)n2)cc1`, for which the IC50 in assay [1] is 3.33 µM (active); in assay [2], 40 µM (inactive).
Consider `C=CCc1cccc(CNc2nc3ccccc3n2CCN2CCOCC2)c1O`, for which the IC50 at Beta-galactosidase is > 80 µM (inactive).
Take `O=C(c1cc(COc2ccc(F)cc2Cl)on1)N1C[C@H]2C[C@H]3C[C@@H](C2)C[C@H]1C3`: the IC50 in “cells [3]” is > 67.5 µM (inactive); on Protein skinhead-1 it was > 100 µM (inactive); in assay [6], > 67.5 µM (inactive). Also, the EC50 in assay [4] was 0.917 µM (active); in assay [5] it was 26.2 µM (active); with H4, 47.6 µM (active).
For the compound `COc1ccc(C(=O)Nc2nnc(SCC(=O)NCc3ccco3)s2)c(OC)c1`, the AC50 is > 52 µM (inactive) in assay [7], 4.64 µM (active) in assay [8], 6.14 µM (active) in [9] and > 52 µM (inactive) in [10]. Moreover, the IC50 (in the assay “cells [3]”; in [6]) was > 67.5 µM (inactive) each time.
For the compound `CC(C)NC(=O)NC(=O)COC(=O)Cc1c(F)cccc1Cl`, at Galanin receptor type 3, the IC50 is > 29.9 µM (inactive). In the assay “cells [11]”, the EC50 was > 29.9 µM (inactive).
For the compound `O=C(/C=C/c1ccc(OCCCF)cc1)N1CCN(Cc2ccccc2)CC1`, the IC50 on Beta-galactosidase was > 80 µM (inactive).
Regarding `Nc1c(C(=O)NCCN2CCOCC2)c2nc3ccccc3nc2n1-c1ccc2c(c1)OCO2`, the AC50 in assay [12] was 37.3 µM (active).
In the case of `S=C(N/N=C/c1cccs1)NC1CC2CCC1C2` (stereo not drawn), the EC50 in assay [13] was > 260 µM (inactive). Besides, the IC50 in assay [2] was > 122 µM (inactive). For the same compound, the CC50 in [14] is > 40 µM (active).
For `CN1C(=O)c2cc(NC(=O)Cc3ccccc3)ccc2OC[C@@H]2O[C@@H](CC(=O)NCc3ccc(Cl)cc3)CC[C@H]21`, in [15], the AC50 is 41.4 µM (active).
On to `COc1ccc(-c2cc(NC=O)c3ncc(-c4cc(OC)c(OC)c(OC)c4)n3c2)cc1`, for which the IC50 (in “cells [3]”; in assay [6]) was > 67.6 µM (inactive) each time.
Take `C/C(=N\Nc1ccc(S(=O)(=O)N2CCCCC2)cn1)c1ccc(O)cc1`: the CC50 in assay [16] was 100 µM (active). Further, in assay [17], the IC50 was 23.4 µM (active).
As to `Nc1ccc(-c2nc3c(ccc4ccccc43)[nH]2)cc1`, the AC50 in assay [12] is 92.4 µM (active).

Values taken from ChEMBL document CHEMBL1201862, “PubChem BioAssay data set” (2004).
